Drawing on ChEMBL document CHEMBL2346501, “Synthesis and evaluation of coumarin derivatives as potential dual-action HIV-1 protease and reverse transcriptase inhibitors” (Bioorg Med Chem, 2013), this text covers IC50 and inhibition for eleven compounds.

As usually defined, the IC50 is the midpoint of a concentration-inhibition curve. A high value points to lower potency. By inhibition is commonly meant the change of the read-out against control, counted positive when it falls. A high value points to strong suppression.

For assay [1], the target named is Protease (Human immunodeficiency virus 1, UniProt Q9YQ12). Put plainly: Inhibition of HIV1 protease.
Assay [2] addresses Protease (Human immunodeficiency virus 1) (UniProt Q9YQ12). As to the kind of experiment: Inhibition of HIV1 protease at 50 uM relative to control.
Assay [3] has as its target Human immunodeficiency virus type 1 reverse transcriptase (Human immunodeficiency virus 1, UniProt Q72547). Put plainly: Inhibition of HIV1 reverse transcriptase.
Assay [4] has as its target Human immunodeficiency virus type 1 reverse transcriptase (Human immunodeficiency virus 1) (UniProt Q72547). Put plainly: Inhibition of HIV1 reverse transcriptase at 50 uM relative to control.

Sequence of Protease (Q9YQ12 whole entry): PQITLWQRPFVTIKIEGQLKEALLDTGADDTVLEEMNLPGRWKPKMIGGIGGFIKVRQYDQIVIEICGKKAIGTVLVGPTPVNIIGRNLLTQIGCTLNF
Sequence of Protease (Human immunodeficiency virus 1) (Q9YQ12 as listed by the source): as the sequence (Q9YQ12 whole entry) above

With `Cc1cn([C@H]2C[C@H](n3cc(CNCC(=O)N(Cc4ccccc4)Cc4cc5ccccc5oc4=O)nn3)[C@@H](CO)O2)c(=O)[nH]c1=O`, the IC50 was determined as 35.1 µM in assay [1] and 3.4 µM in assay [3]. The inhibition in assay [2] amounted to 52%; in assay [4], 96%.
The corresponding values for `Cc1cn([C@H]2C[C@H](n3cc(CNCc4cc5cc(Cl)ccc5oc4=O)nn3)[C@@H](CO)O2)c(=O)[nH]c1=O` are 24.8 µM, 102 µM, 56% and 24%.
The corresponding values for `CCOc1cccc2cc(CN(Cc3ccccc3)C(=O)CNCc3cn([C@H]4C[C@H](n5cc(C)c(=O)[nH]c5=O)O[C@@H]4CO)nn3)c(=O)oc12` are 27.3 µM, 2.86 µM, 58% and 97%.
The corresponding values for `COc1cccc2cc(CNCc3cn([C@H]4C[C@H](n5cc(C)c(=O)[nH]c5=O)O[C@@H]4CO)nn3)c(=O)oc12` are 21.6 µM, 106 µM, 64% and 29%.
As to `CCOc1cccc2cc(CNCc3cn([C@H]4C[C@H](n5cc(C)c(=O)[nH]c5=O)O[C@@H]4CO)nn3)c(=O)oc12`, the IC50 in assay [1] was determined as 23.3 µM; in assay [3] it was 114 µM. Also, the inhibition in assay [2] is 62%; in assay [4], 21%.
The matching figures for `Cc1cn([C@H]2C[C@H](n3cc(CNCC(=O)N(Cc4ccccc4)Cc4cc5cc(Br)ccc5oc4=O)nn3)[C@@H](CO)O2)c(=O)[nH]c1=O`: 32 µM, 4.24 µM, 52% and 94%.
Consider `COc1cccc2cc(CN(Cc3ccccc3)C(=O)CNCc3cn([C@H]4C[C@H](n5cc(C)c(=O)[nH]c5=O)O[C@@H]4CO)nn3)c(=O)oc12`, for which the figures for the half-inhibitory concentration (IC50) in assay [1] and in assay [3] were 22.7 µM and 2.88 µM, respectively. For the same compound, the inhibition was determined as 60% in assay [2] and 97% in assay [4].
The matching figures for `Cc1cn([C@H]2C[C@H](n3cc(CNCC(=O)N(Cc4ccccc4)Cc4cc5cc(Cl)ccc5oc4=O)nn3)[C@@H](CO)O2)c(=O)[nH]c1=O`: 29.5 µM, 3.69 µM, 58% and 99%.
As for `CC(C)c1nc(CN(C)C(=O)N[C@H](C(=O)N[C@@H](Cc2ccccc2)C[C@H](O)[C@H](Cc2ccccc2)NC(=O)OCc2cncs2)C(C)C)cs1`, in assay [2], the inhibition was 72%.
Consider `Cc1cn([C@H]2C[C@H](n3cc(CNCc4cc5cc(Br)ccc5oc4=O)nn3)[C@@H](CO)O2)c(=O)[nH]c1=O`, for which the IC50 in assay [1] worked out at 28.9 µM; in assay [3] it was 6.1 µM. The inhibition in assay [2] was determined as 57%; in assay [4], 94%.
The matching figures for `Cc1cn([C@H]2C[C@H](n3cc(CNCc4cc5ccccc5oc4=O)nn3)[C@@H](CO)O2)c(=O)[nH]c1=O`: 27.1 µM, 5.59 µM, 61% and 92%.
